Results taken from ChEMBL document CHEMBL4265916, “Synthesis and antiproliferative activities of novel quartenary ammonium spinosyn derivatives” (Bioorg Med Chem Lett, 2018).
Active and inactive are the calls of the source. No cut-off for these calls is given here.

Tests used:
MCF7 [1] = assay: Antiproliferative activity against human MCF7 cells after 48 hrs by MTT assay; type: functional, cell-based; conditions: MCF7, 48 h
NCI-H460 [2] = assay: Induction of apoptosis in human NCI-H460 cells assessed as viable cells at 32 uM after 48 hrs by Annexin V-FITC/propidium iodide staining-based flow cytometric analysis (reference value: 93.9%); type: functional; conditions: NCI-H460, 48 h, read-out: Activity
NCI-H460 [3] = assay: Induction of apoptosis in human NCI-H460 cells assessed as necrotic cells at 32 uM after 48 hrs by Annexin V-FITC/propidium iodide staining-based flow cytometric analysis (reference value: 2.11%); type: functional
MCF7 [4] = assay: Antiproliferative activity against human MCF7 cells at 50 uM after 48 hrs by MTT assay; type: functional
NCI-H460 [5] = assay: Induction of apoptosis in human NCI-H460 cells assessed as viable cells at 64 uM after 48 hrs by Annexin V-FITC/propidium iodide staining-based flow cytometric analysis (reference value: 93.9%); type: functional; conditions: NCI-H460, 48 h, read-out: Activity
NCI-H460 [6] = assay: Induction of apoptosis in human NCI-H460 cells assessed as early apoptotic cells at 64 uM after 48 hrs by Annexin V-FITC/propidium iodide staining-based flow cytometric analysis (reference value: 2.17%); type: functional
NCI-H460 [7] = assay: Induction of apoptosis in human NCI-H460 cells after 48 hrs by Annexin V-FITC/propidium iodide staining-based flow cytometric analysis; type: functional, cell-based
NCI-H460 [8] = assay: Induction of apoptosis in human NCI-H460 cells assessed as late apoptotic cells at 32 uM after 48 hrs by Annexin V-FITC/propidium iodide staining-based flow cytometric analysis (reference value: 1.80%); type: functional
NCI-H460 [9] = assay: Growth inhibition of human NCI-H460 cells at 32 uM after 48 hrs by MTT assay; type: functional, cell-based
NCI-H460 [10] = assay: Induction of apoptosis in human NCI-H460 cells assessed as late apoptotic cells at 64 uM after 48 hrs by Annexin V-FITC/propidium iodide staining-based flow cytometric analysis (reference value: 1.80%); type: functional
NCI-H460 [11] = assay: Inhibition of oxygen consumption rate in human NCI-H460 cells at 32 uM after 1 hr; type: functional
NCI-H460 [12] = assay: Induction of apoptosis in human NCI-H460 cells assessed as early apoptotic cells at 32 uM after 48 hrs by Annexin V-FITC/propidium iodide staining-based flow cytometric analysis (reference value: 2.17%); type: functional
U-87 MG = assay: Antiproliferative activity against human U87MG cells after 48 hrs by MTT assay; type: functional, cell-based, U-87MG ATCC
NCI-H460 [13] = assay: Induction of apoptosis in human NCI-H460 cells assessed as necrotic cells at 64 uM after 48 hrs by Annexin V-FITC/propidium iodide staining-based flow cytometric analysis (reference value: 2.11%); type: functional
NCI-H460 [14] = assay: Antiproliferative activity against human NCI-H460 cells after 48 hrs by MTT assay; type: functional, cell-based; conditions: NCI-H460, 48 h
HCT-116 = assay: Antiproliferative activity against human HCT116 cells after 48 hrs by MTT assay; type: functional, cell-based; conditions: HCT-116, 48 h

CC[C@H]1CCC[C@H](O[C@H]2CC[C@H](N(C)C)[C@@H](C)O2)[C@@H](C)C(=O)C2=C[C@@H]3[C@@H](C=C[C@@H]4C[C@@H](O[C@@H]5O[C@@H](C)[C@H](OC)[C@@H](OC)[C@H]5OC)C[C@@H]34)[C@@H]2CC(=O)O1 [SPINOSYN A]
IC50 (MCF7 [1]): 16.7 µM | viability at 32 µM (NCI-H460 [2]): 90.8% | Activity (NCI-H460 [3]): 1.69% | Activity (MCF7 [4]): 92.6% | viability at 64 µM (NCI-H460 [5]): 87.8% | Activity (NCI-H460 [6]): 4.53% | Activity (NCI-H460 [7]): Dose-dependent effect | Activity (NCI-H460 [8]): 4.41% | growth inhibition (GI) (NCI-H460 [9]): inactive | Activity (NCI-H460 [10]): 5.33% | inhibition (NCI-H460 [11]): Active | Activity (NCI-H460 [12]): 3.11% | IC50 (U-87 MG): 104 µM | Activity (NCI-H460 [13]): 2.33% | IC50 (NCI-H460 [14]): 66 µM | IC50 (HCT-116): 10.7 µM
